Assay results: US20100216779A1 (GLAXOSMITHKLINE LLC, priority 2007, published 2010)

Test system: various cell lines of different tumor origins
Assay: Inhibition of cell proliferation, InCell Analyzer assay
Assay type: cell-based
Protocol: C. Inhibition of Cell Proliferation
For InCell Analyser assay, various cell lines of different tumor origins were grown to 70-80% confluency in appropriate culture media containing 10% fetal bovine serum at 37° C. in a 5% CO2 incubator. On day-1, cells were seeded at 2 densities in 384-well plates and incubated at 37° C. overnight. Stock compound plates were prepared in advance which contained dimethyl sulfoxide (DMSO) alone and a 9-point half-log decreasing dose range of the compound of Example 22 in DMSO. The compound plates were stored at −80° C. and each plate was only thawed once and used. On day 0, the main assay plates received compound or DMSO via a sonic delivery system (ECHO). The highest final concentration of compound of the dose range in the culture plates was 10 uM. These plates were cultured at 37° C. for 3 days. […] On day 3, the compound treated plates were stained and fixed to measure proliferation, apoptosis, and mitotic index using an InCell1000 analyser. A nuclear stain was used to identify cells in the wells. By counting the number of nuclei, the proliferation index of compound treated groups were calculated as a percentage relative to the DMSO control, which was set to 100%. The IC50 values were calculated using model 205 in ExcelFit.

Measured: IC50

COc1cc(N2CCC(N3CCCCC3)CC2)ccc1Nc1nccc(-c2c(-c3cccc(C(=O)Nc4c(F)cccc4F)c3)nc3ccccn23)n1 [Example 22, 3-[3-(2-{[4-(1,4′-bipiperidin-1′-yl)-2-(methyloxy)phenyl]amino}-4-pyrimidinyl)imidazo[1,2-a]pyridin-2-yl]-N-(2,6-difluorophenyl)benzamide]
< 1 µM: CML-T1, CML-T1, CML blast phase | HOS, Sarcoma | Homo sapiens, A673, A673, Sarcoma | Homo sapiens, A2780, A2780, Ovary | Homo sapiens, A-431, A-431, Skin | Homo sapiens, ASPC1, AsPC-1, Pancreas | Homo sapiens, BE(2)-C, BE(2)C, Brain | Homo sapiens, BFTC-905, BFTC-905, Bladder | Homo sapiens, CAPAN-1, Capan-1, Pancreas | Homo sapiens, CHP-212, CHP-212, neuroblastoma | Homo sapiens, GDM-1, GDM-1, AML | Homo sapiens, HPAC, Pancreas | Homo sapiens, HT-29, HT-29, Colon | Homo sapiens, HT-1080, HT-1080, Sarcoma - fibrosarcoma | Homo sapiens, IGROV-1, IGROV1, Ovary | Homo sapiens, JEG-3, JEG-3, Placenta | Homo sapiens, LS-1034, LS1034, Colon | Homo sapiens, MC-IXC, neuroblastoma | Homo sapiens, MCF7, MCF7, Breast | Homo sapiens, MCF-10A, MCF10a, Breast (Normal) | Homo sapiens, MIA PaCa-2, MiaPaCa, Pancreas
> 5 µM: 5637, Bladder | CEM/C1, CEM/C1, acute lymphoblastic leukaemia | CESS, AML | COLO 704, COLO-704, Ovary | CRO-AP5, CRO-AP5, lymphoma - B cell unspecified | EM-2, CML blast phase | H4, glioma | HT-3, Cervix | Homo sapiens, BHT-101, BHT-101, Thyroid | Homo sapiens, BXPC-3, BxPC-3, Pancreas | Homo sapiens, CAKI-1, Caki-1, Kidney | Homo sapiens, CAL-27, Cal27, H&N | Homo sapiens, COLO-829, Colo-829, Skin | Homo sapiens, DBTRG-05MG, glioma | Homo sapiens, DoTc2-4510, DoTc2-4510, Cervix | Homo sapiens, HCC1937, HCC1937, Breast | Homo sapiens, HCC2157, HCC2157, Breast | Homo sapiens, HCC2218, HCC2218, Breast | Homo sapiens, HEC-1-A, Uterus | Homo sapiens, HEL 92.1.7, HEL-92.1.7, erythroleukemia | Homo sapiens, HOP-62, HOP-62, Lung | Homo sapiens, HPAF-II, HPAFII, Pancreas | Homo sapiens, HT1197, HT1197, Bladder | Homo sapiens, HT-1376, HT1376, Bladder | Homo sapiens, HeLa, Cervix | Homo sapiens, Hs746T, Stomach | Homo sapiens, HuP-T4, HuP-T4, Pancreas | Homo sapiens, K562, K-562, CML | Homo sapiens, KATO III, KATOIII, Stomach | Homo sapiens, KM12, KM12, Colon | Homo sapiens, LOX IMVI, Skin | Homo sapiens, MES-SA, Sarcoma | Homo sapiens, Malme-3M, Skin | Homo sapiens, NCI-H146, NCI-H146, Lung
1 to 5 µM: A7, Skin | AGS, Stomach | B-cell, BC-1, lymphoma - B cell unspecified | B-cell, BC-2, lymphoma - B cell unspecified | B-cell, BC-3, lymphoma - B cell unspecified | B-cell, DB, lymphoma - diffuse large B cell | C3A, Liver | C32TG, Skin | C-4I, Cervix | DK-MG, glioma | ES2, Ovary | GCT, Sarcoma | HN5, H&N | Homo sapiens, 639-V, Bladder | Homo sapiens, 647-V, Bladder | Homo sapiens, 769-P, Kidney | Homo sapiens, 786-0, 786-0, Kidney | Homo sapiens, A101D, Skin | Homo sapiens, A 172, A172, glioma | Homo sapiens, A204, A204, Sarcoma - rhabdomyosarcoma | Homo sapiens, A498, A-498, Kidney | Homo sapiens, A-375, A375, Skin | Homo sapiens, A-427, A427, Lung | Homo sapiens, ACHN, Kidney | Homo sapiens, AN3-CA, AN3CA, Uterus | Homo sapiens, ARH-77, ARH-77, Myeloma - plasma cell | Homo sapiens, BPH-1, BPH1, Prostate | Homo sapiens, BT-20, BT-20, Breast | Homo sapiens, BT-474, BT474, Breast | Homo sapiens, BV-173, BV-173, CML blast phase | Homo sapiens, BeWo, Placenta | Homo sapiens, C-4-II, C-4II, Cervix | Homo sapiens, C-33-A, C-33A, Cervix | Homo sapiens, CAKI-2, Caki-2, Kidney | Homo sapiens, CAL-54, CAL-54, Kidney | Homo sapiens, CAL-62, CAL-62, Thyroid | Homo sapiens, CCF-STTG1, CCF-STTG1, glioma | Homo sapiens, CGTH-W-1, CGTH-W-1, Thyroid | Homo sapiens, CHL-1, CHL-1, Skin | Homo sapiens, CRO-AP2, CRO-AP2, lymphoma - B cell unspecified | Homo sapiens, Caov-3, CAOV-3, Ovary | Homo sapiens, Capan-2, Capan-2, Pancreas | Homo sapiens, D283 Med, D283Med, medulloblastoma | Homo sapiens, DU-4475, DU4475, Breast | Homo sapiens, Detroit 562, Detroit562, H&N | Homo sapiens, EFM-19, EFM-19, Breast | Homo sapiens, EKVX, Lung | Homo sapiens, FaDu, H&N | Homo sapiens, G-401, G-401, kidney | Homo sapiens, G-402, G-402, Kidney | Homo sapiens, HCC38, HCC38, Breast | Homo sapiens, HCC70, HCC70, Breast | Homo sapiens, HCC1143, HCC1143, Breast | Homo sapiens, HCC1395, HCC1395, Breast | Homo sapiens, HCC1954, HCC1954, Breast | Homo sapiens, HCC 2998, HCC-2998, Colon | Homo sapiens, HEC-1B, HEC-1-B, Uterus | Homo sapiens, HMCB, Skin | Homo sapiens, HOP-92, HOP-92, Lung | Homo sapiens, Hep3B, Liver | Homo sapiens, HepG2, HepG2, Liver | Homo sapiens, HuT78, Hut78, lymphoma - cutaneous T cell | Homo sapiens, J-RT3-T3-5, J.RT3-T3.5, acute lymphoblastic leukaemia | Homo sapiens, LS174T, Colon | Homo sapiens, MDA-MB-175-VII, Breast | Homo sapiens, MDA-MB-231, MDA-MB-231, Breast | Homo sapiens, MDA-MB-435, MDA-MB-435, Breast (Melanoma) | Homo sapiens, MDA-MB-453, MDA-MB-453, Breast | Homo sapiens, MDA-MB-468, MDA-MB-468, Breast | Homo sapiens, MOLT-16, MOLT-16, acute lymphoblastic leukaemia | Homo sapiens, MV4-11, MV-4-11, acute leukaemia of ambiguous lineage | Homo sapiens, NCI-H69, NCI-H69, Lung | Homo sapiens, NCI-H82, NCI-H82, Lung | Homo sapiens, NCI-H209, NCI-H209, Lung
